In patent US9226929B2, “Pharmaceutically active disubstituted triazine derivatives” (Bayer Intellectual Property GMBH, priority 2011, dated 2016):

Assays:
CDK9/Cyclin K = biological target: T1, CDK9/Cyclin K (Homo sapiens, UniProt P50750); assay: LanthaScreen Eu Kinase Binding Assay, CDK9/Cyclin K; conditions: tracer 236, read-out: CDK9/Cyclin K (activity range), Kd
T1 construct: His; purchased Invitrogen
Description: (§1) This protocol describes how the LanthaScreen Eu Kinase Binding Assay was performed to determine dissociation constants (Kd) of compounds of general formula (I) and CDK/Cyclin complexes. The principle behind this assay is based upon the binding and displacement of an Alexa Fluor 647-labeled tracer, which binds to the active site of kinases. Binding of the tracer to the kinase is detected using a Eu-labeled antibody. Simultaneous binding of both the tracer and antibody to the kinase gives rise to a FRET-signal. Binding of an inhibitor to the kinase competes for binding with the tracer, resulting in a loss of FRET.
(§2) The compounds of general formula (I) summarized in Table 1 were diluted from a 10 mM DMSO stock solution 1:10 in a total volume of 15 μL DMSO. This compound predilution was then serial diluted 1:3 over 8 steps in DMSO and briefly spun down. Each compound solution was now diluted 1:33.33 in kinase buffer (HEPES: 20 mM, pH: 8.0; MgCl2: 10 mM; DTT: 1 mM; Brij-35: 0,01%), mixed thoroughly and spun down. For every sample, 5 μL of the diluted compound were mixed with 5 μL tracer working solution (e.g. 60 nM tracer 236 in kinase buffer for CDK2/Cyclin A) and 5 μL CDK/Cyclin/Anti-GST-AB-working solution (e.g. 15 nM CDK2/Cyclin A, 1:250 dilution of Anti-GST-AB in kinase buffer) in a well of a small volume 384 well plate (Corning Incorporated, Corning, N.Y., USA; order no. 3673). The tracer concentration was adjusted to its dissociation constant (Kd) for the CDK/Cyclin, which was 30 nM for CDK2/Cyclin A, CDK7/Cyclin H and CDK9/Cyclin T1, 20 nM for CDK8/Cyclin C, and 35 nM for CDK9/Cyclin K. For negative controls, in each well 5 μL of DMSO working solution (3% DMSO diluted in kinase buffer) was mixed with 5 μL Anti-GST-AB working solution (e.g. 1:250 dilution of Anti-GST-AB in kinase buffer for CDK2/Cyclin A) and 5 μL Tracer working solution (e.g. 60 nM Tracer 236 in kinase buffer for CDK2/Cyclin A). For positive controls, in each well 5 μL of DMSO working solution (3% DMSO diluted in kinase buffer) was mixed with 5 μL CDK/Cyclin/Anti-GST-AB-working solution: (e.g. 15 nM CDK2/Cyclin A, 1:250 dilution of Anti-GST-AB in kinase buffer) and 5 μL Tracer working solution (e.g. 60 nM Tracer 236 in kinase buffer for CDK2/Cyclin A). Positive and negative controls were calculated from at least 8 different sample wells. The 384 well plates were mixed in a Teleshaker plate mixer (Beckman Coulter, Brea, Calif., USA) at 2000 rpm for 40 sec, and incubated for 1 h at room temperature before reading. The FRET signal was measured at 340 nm excitation, 665 nm and 615 nm emission (for the kinase tracer and LanthaScreen Eu-AB, respectively) with an Envision spectrophotometer (Perkin Elmer, Waltham, Mass., USA) with […]. Kd values were determined from the sigmoidal dose response curves with the software Quattro Workflow (Quattro GmbH, Munich, Germany).

CDK9/Cyclin T1 = biological target: T2, CDK9/Cyclin T1 (Homo sapiens, UniProt P50750); assay: LanthaScreen Eu Kinase Binding Assay, CDK9/Cyclin T1; conditions: tracer 236, read-out: CDK9/Cyclin T1 (activity range), Kd
T2 construct: His; purchased Invitrogen
Description: as §1, §2

CDK1/CyclinB1 = biological target: T3, CDK1/CyclinB1 (Homo sapiens, UniProt P06493); assay: Lance Ultra KinaSelect Assay, CDK1; assay type: biochemical; conditions: ATP 20 μM; read-out: CDK1 LANCE assay (activity range), IC50
T3 construct: purchased Carna
Description: (§3) 2. Measurement of half maximal inhibitory concentration to CDKs This protocol describes how the Lance Ultra KinaSelect Assay was performed to determine half maximal inhibitory concentration (1050) of compounds of general formula (I) and CDK/Cyclin complexes. The principle behind this enzymatic assay is based upon the phosphorylation of the ULight-Peptide Substrat. It is detected by using a specific
(§4) EU-labeled anti-phospho peptide antibody. The binding of the Eu-labeled anti-phospho peptide antibody to the phosphorylated ULight labeled peptide gives rise to a FRET-signal. Binding of an inhibitor to the kinase prevents phosphorylation of the ULight-MBP Substrat, resulting in a loss of FRET.
(§5) The compounds of general formula (I) summarized in Table 5 were diluted from a 10 mM DMSO stock solution 1:10 in a total volume of 15 μL DMSO. This compound predilution was then serial diluted 1:3 over 8 steps in DMSO and briefly spun down. Each compound solution was now diluted 1:20 in Enzymatic Buffer (HEPES: 50 mM, pH: 7.5; MgCl2: 10 mM; EGTA: 1 mM; DTT: 2 mM; Tween-20: 0.01%), mixed thoroughly and spun down. For every sample, 2 μL of the diluted compound were mixed with 6 μL CDK/Cyclin/Substrat solution and 2 μL ATP solution in a well of a small volume 384 well plate (Corning Incorporated, Corning, N.Y., USA; order no. 3673). The CDK/Cyclin was diluted to the appropriate concentration (see Table 3) and the ATP concentration was adjusted to its […] for the CDK/Cyclin, which was 3 μM for CDK2/Cyclin A, 20 μM for CDK1/Cyclin B1, 25 μM for CDK7/Cyclin H and CDK9/Cyclin T1, 55 μM for CDK6/Cyclin D3, 90 μM for CDK4/Cyclin D1 and 125 μM for CDK9/Cyclin K. For negative controls, in each well 2 μL of DMSO solution (1% final DMSO assay concentration) was mixed with 6 μL substrate solution (50 nM ULight MBP final assay concentration) and 2 μL ATP solution (appropriate final concentration see Table 3). For positive controls, in each well 2 μL of DMSO solution (1% final DMSO assay concentration) was mixed with 6 μL CDK/Cyclin/Substrat (appropriate final concentration see Table 3) and 2 μL Tracer ATP solution (appropriate final concentration see Table 3). Positive and negative controls were calculated from at least 8 different sample wells. The 384 well plates were mixed in a Teleshaker plate mixer (Beckman Coulter, Brea, Calif., USA) at 2000 rpm for 40 sec, and incubated for 1 h at room temperature. Before reading, 10 μL the detection buffer (Lance Detection Buffer 1×; EDTA: […]; Eu-Anti-P-MBP: see Table 3) was added. The FRET signal was measured at 340 nm excitation, 665 nm and 615 nm emission (for the kinase tracer and LanthaScreen Eu-AB, respectively) with an Envision spectrophotometer (Perkin Elmer, Waltham, Mass., USA) with 50 μs delay and 300 μs integration time. IC50 values were determined from the sigmoidal dose response curves with the software Quattro Workflow (Quattro GmbH, Munich, Germany).

CDK7/CyclinH/MAT1 [1] = biological target: T4, CDK7/CyclinH/MAT1 (Homo sapiens, UniProt P50613); assay: Lance Ultra KinaSelect Assay, CDK7; assay type: biochemical; conditions: ATP 25 μM; read-out: CDK7 LANCE assay (activity range), IC50
T4 construct: His; purchased Carna Biosciences
Description: as §3, §4, §5

CDK9 = biological target: T5, CDK9 (Homo sapiens, UniProt P50750); assay: Lance Ultra KinaSelect Assay, CDK9; assay type: biochemical; conditions: cyclin partner (T1 or K) not stated; read-out: CDK9 LANCE assay (activity range), IC50
T5 construct: purchased Invitrogen
Description: as §3, §4, §5

CDK6/CyclinD3 = biological target: T6, CDK6/CyclinD3 (Homo sapiens, UniProt Q00534); assay: Lance Ultra KinaSelect Assay, CDK6; assay type: biochemical; conditions: ATP 55 μM; read-out: CDK6 LANCE assay (activity range), IC50
T6 construct: purchased Carna
Description: as §3, §4, §5

CDK4/CyclinD1 = biological target: T7, CDK4/CyclinD1 (Homo sapiens, UniProt P11802); assay: Lance Ultra KinaSelect Assay, CDK4; assay type: biochemical; conditions: ATP 90 μM; read-out: CDK4 LANCE assay (activity range), IC50
T7 construct: purchased Invitrogen
Description: as §3, §4, §5

CDK2/CyclinA [2] = biological target: T8, CDK2/CyclinA (Homo sapiens, UniProt P24941); assay: Lance Ultra KinaSelect Assay, CDK2; assay type: biochemical; conditions: ATP 3 μM; read-out: CDK2 LANCE assay (activity range), IC50
T8 construct: GST; purchased Proqinase
Description: as §3, §4, §5

CDK7/CyclinH/MAT1 [3] = biological target: T4, CDK7/CyclinH/MAT1; assay: LanthaScreen Eu Kinase Binding Assay, CDK7; conditions: tracer 236, read-out: CDK7 (activity range), Kd
Description: as §1, §2

[4] = tested on: NF-kappaB reporter gene activation; assay: NF-kappaB Reporter Assay; assay type: cell-based; conditions: Homo sapiens; HEK293 cells, pNFkBluc reporter, 20 ng/ml TNF alpha, 5 h; read-out: NF-kappaB activation (activity range), IC50
Description: 3.2 NF-kappaB Reporter Assay
Cells were maintained in RPMI cell culture medium+glutamine (PAN Biotech GmbH, Aidenbach, Germany) supplemented with 10% fetal calf serum (PAA Laboratories GmbH, Pasching, Austria) and grown at 37° C., 5% CO2. HEK293 cells grown to 50% confluence were transfected with the Amaxa® Cell Line Nucleofector® Kit V (Lonza, Basel, Switzerland, catalog #VCA-1003). Transfections were performed according to manufacturer's optimized protocol for transfection of HEK293 cells. In brief, 2×10^5 cells were transfected with 5 μg highly purified plasmid DNA. Cells were transfected with a NF-kappa B reporter plasmid (pNFkBluc), pTALluc for control, or pMAXGFP for transfection control. After transfection, cells were taken up in 500 μL RPMI1640 cell culture medium, incubated for 1 h at 37° C., and 4.5 ml DMEM without phenol red were added per transfection. Transfected cells were seeded in 96 well plates (Greiner Bio-One, Frickenhausen, Germany, catalog #655098) with 100 μL cell suspension per well and incubated for 48 h. To each well, 100 μL DMEM with 2× concentrated compound diluted from 10 mM DMSO stocks, or 100 μL DMEM with 0.4% DMSO for control wells, was added. The compounds of general formula (I) summarized in Table 6 were used in this assay. Cells were stimulated with 20 ng/ml TNF alpha, and plates were incubated for 5 h at 37° C./5% CO2. Cell culture supernatants were removed to leave 100 μl medium per well, followed by addition of 100 μl Bright Glo luciferase assay reagent (Promega, Madison, Wis., USA, catalog #E2620), and shaking for 5 minutes in the dark. Luminescence was measured with a Victor Photospectrometer (Perkin Elmer, Waltham, Mass., USA). IC50 values were calculated with the software Excel Fit (IDBS, Guildford, UK) from 2-fold dilution series comprising at least 10 concentrations in duplicates.

CDK2/CyclinA [5] = biological target: T8, CDK2/CyclinA; assay: LanthaScreen Eu Kinase Binding Assay, CDK2; conditions: tracer 236, read-out: CDK2 (activity range), Kd
Description: as §1, §2

Hela cells = assay: Cell Viability Assay, Hela cells; assay type: cell-based; conditions: Homo sapiens, 72 h, Cell Titer Glo, read-out: Cell Viability - Hela cells (activity range), IC50
Description: (§6) 3.4 Cell Viability Assays
(§7) Hela- or MDAMB468-Cells were maintained in RPMI 1640 or McCoy's 5A cell culture medium+glutamine (PAN Biotech GmbH, Aidenbach, Germany; order no. PO4-22100; PO4-05500) supplemented with 10% fetal calf serum “Gold” (PAA Laboratories GmbH, Pasching, Austria; order no. A15-151) and grown at 37° C., 5% CO2. For the cell viability assay, cells were seeded with a density of 400 (Hela cells, DSMZ Braunschweig order no. ACC57) or 800 (MDAMB468 cells, ATCC order no. HTB-132) per well in 25 μL in 384-well plates (Greiner Bio-One, Frickenhausen, Germany; order no. 781080). After overnight incubation at 37° C./5% CO2, 25 nL or 75 nL compound were added to each sample well by using BIOMEK FXP Laboratory Automation Workstation (Beckman Coulter, USA). Wells with cells and 0.1% or 0,3% DMSO in culture medium were used as positive controls, wells with cells and 10 μM staurosporine in culture medium were used as negative controls. The cells were incubated with the compounds for 72 h at 37° C./5% CO2. For measurement of cell viability 25 μL Cell Titer Glo reagent (Promega, Madison, USA; order no. G7573), 1:2 diluted with cell culture medium, was added to each well. The 384we11-plates were placed for 2 min on a orbital microplate shaker and incubated for further 10 min at room temperature to stabilize the luminescence signal.
(§8) Luminescence was measured by Envision Plate Reader (Perkin Elmer, USA). IC50 values were calculated with the software Excel Fit (IDBS, Guildford, UK) from 3-fold dilution series comprising at least 8 concentrations in duplicates.

MDAMB468 cells = assay: Cell Viability Assay, MDAMB468 cells; assay type: cell-based; conditions: Homo sapiens, MDA-MB-468; 72 h, Cell Titer Glo; read-out: Cell Viability - MDAMB468 cells (activity range), IC50
Description: as §6, §7, §8

T4 sequence (P50613 whole entry): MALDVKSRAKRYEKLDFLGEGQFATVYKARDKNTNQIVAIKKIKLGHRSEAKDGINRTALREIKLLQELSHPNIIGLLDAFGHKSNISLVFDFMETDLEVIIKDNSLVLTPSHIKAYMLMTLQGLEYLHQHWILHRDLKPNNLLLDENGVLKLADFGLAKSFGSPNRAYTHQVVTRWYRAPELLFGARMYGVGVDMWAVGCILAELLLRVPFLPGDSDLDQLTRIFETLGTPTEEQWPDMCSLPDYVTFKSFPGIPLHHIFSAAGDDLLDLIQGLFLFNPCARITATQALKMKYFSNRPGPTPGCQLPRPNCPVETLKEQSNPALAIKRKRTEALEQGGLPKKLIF
T4 sequence (P51946 whole entry partner): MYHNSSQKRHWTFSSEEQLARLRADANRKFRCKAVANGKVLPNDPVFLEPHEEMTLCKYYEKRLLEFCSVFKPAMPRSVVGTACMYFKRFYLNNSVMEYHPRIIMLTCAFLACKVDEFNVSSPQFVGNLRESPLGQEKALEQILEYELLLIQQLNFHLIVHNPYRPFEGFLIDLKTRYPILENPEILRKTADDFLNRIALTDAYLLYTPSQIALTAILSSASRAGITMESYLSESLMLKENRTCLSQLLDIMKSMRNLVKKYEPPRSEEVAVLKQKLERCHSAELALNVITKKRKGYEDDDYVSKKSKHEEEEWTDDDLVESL
T4 sequence (P51948 whole entry partner): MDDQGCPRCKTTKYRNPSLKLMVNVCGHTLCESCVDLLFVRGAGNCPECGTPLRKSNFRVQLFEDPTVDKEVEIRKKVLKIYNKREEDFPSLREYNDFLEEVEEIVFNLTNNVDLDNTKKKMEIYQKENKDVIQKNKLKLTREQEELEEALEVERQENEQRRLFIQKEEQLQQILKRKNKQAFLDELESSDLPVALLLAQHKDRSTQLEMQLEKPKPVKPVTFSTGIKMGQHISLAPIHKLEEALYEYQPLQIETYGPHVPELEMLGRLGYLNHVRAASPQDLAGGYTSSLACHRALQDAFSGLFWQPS
T2 sequence (P50750 whole entry): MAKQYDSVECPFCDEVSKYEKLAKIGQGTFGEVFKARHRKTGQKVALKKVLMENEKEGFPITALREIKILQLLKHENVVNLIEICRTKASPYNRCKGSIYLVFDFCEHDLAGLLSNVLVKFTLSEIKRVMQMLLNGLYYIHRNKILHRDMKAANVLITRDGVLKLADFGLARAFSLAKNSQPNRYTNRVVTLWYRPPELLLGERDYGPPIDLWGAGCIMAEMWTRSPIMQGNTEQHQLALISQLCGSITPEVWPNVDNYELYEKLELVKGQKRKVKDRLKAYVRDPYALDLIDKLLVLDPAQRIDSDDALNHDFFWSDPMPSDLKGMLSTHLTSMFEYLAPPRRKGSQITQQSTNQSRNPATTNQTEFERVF
T2 sequence (O60563 whole entry partner): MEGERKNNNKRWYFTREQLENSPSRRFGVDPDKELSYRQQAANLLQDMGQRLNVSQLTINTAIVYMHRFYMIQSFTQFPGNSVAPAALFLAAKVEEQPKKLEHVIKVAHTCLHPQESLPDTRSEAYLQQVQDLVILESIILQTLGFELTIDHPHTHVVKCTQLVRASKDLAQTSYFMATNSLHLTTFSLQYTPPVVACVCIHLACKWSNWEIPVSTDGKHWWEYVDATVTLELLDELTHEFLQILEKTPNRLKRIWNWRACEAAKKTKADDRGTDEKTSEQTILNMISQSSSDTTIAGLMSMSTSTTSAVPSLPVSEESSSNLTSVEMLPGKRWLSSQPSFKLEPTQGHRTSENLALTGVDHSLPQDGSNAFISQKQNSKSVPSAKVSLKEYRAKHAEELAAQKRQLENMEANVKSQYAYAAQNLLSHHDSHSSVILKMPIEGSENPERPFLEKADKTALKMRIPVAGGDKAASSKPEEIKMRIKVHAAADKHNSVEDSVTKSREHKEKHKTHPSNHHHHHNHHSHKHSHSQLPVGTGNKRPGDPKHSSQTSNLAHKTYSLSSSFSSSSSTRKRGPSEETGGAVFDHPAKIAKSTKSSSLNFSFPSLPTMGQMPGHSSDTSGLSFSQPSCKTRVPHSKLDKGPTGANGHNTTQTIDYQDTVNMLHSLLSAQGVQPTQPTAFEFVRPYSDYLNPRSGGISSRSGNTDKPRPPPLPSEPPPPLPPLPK
T1 sequence (P50750 whole entry): as the sequence (P50750 whole entry) above
T1 sequence (O75909 1-357 isoform O75909-1 partner): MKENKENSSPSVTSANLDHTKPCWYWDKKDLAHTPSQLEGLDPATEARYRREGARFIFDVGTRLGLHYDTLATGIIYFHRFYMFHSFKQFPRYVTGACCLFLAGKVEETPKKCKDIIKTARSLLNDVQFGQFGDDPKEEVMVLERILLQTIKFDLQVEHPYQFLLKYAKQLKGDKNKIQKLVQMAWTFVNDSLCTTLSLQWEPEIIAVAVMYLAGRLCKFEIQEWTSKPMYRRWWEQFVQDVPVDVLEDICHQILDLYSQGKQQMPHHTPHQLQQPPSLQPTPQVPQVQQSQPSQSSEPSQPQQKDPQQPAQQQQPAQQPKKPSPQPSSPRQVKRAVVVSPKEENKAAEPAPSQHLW
T7 sequence (P11802 whole entry): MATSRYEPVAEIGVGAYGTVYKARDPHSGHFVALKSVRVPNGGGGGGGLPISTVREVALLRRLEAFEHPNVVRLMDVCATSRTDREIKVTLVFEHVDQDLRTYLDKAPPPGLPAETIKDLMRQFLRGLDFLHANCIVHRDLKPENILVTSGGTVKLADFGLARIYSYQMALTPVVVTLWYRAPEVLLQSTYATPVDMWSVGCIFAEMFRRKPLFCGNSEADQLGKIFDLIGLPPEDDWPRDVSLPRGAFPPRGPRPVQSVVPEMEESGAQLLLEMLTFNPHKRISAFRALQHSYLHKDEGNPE
T7 sequence (P24385 whole entry partner): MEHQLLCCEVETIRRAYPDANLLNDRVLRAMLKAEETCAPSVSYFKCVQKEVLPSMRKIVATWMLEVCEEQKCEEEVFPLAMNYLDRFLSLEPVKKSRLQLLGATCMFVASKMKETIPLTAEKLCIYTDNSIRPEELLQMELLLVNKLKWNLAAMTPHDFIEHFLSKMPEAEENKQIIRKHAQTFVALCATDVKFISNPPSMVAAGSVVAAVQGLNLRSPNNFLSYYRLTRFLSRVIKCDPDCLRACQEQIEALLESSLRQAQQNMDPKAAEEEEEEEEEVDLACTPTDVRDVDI
T3 sequence (P06493 whole entry): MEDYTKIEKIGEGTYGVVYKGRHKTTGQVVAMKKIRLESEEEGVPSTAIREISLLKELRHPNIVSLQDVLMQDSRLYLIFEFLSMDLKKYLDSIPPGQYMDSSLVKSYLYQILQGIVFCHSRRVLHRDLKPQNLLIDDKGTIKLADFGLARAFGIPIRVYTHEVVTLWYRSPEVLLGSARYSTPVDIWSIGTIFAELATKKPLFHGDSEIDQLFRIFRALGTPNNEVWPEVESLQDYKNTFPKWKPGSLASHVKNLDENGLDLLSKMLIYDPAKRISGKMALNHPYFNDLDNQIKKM
T3 sequence (P14635 whole entry partner): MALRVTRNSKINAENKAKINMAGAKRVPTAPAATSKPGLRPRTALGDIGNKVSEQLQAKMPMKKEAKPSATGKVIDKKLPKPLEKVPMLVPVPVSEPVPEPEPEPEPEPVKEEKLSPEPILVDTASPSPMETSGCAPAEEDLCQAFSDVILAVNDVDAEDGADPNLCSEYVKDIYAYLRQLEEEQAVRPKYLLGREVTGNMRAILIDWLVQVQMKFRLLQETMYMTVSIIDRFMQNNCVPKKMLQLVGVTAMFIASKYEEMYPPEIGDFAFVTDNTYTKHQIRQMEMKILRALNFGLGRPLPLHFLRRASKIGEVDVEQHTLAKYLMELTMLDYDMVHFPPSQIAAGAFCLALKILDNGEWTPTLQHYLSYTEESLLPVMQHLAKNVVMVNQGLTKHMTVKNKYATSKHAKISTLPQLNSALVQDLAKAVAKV
T6 sequence (Q00534 whole entry): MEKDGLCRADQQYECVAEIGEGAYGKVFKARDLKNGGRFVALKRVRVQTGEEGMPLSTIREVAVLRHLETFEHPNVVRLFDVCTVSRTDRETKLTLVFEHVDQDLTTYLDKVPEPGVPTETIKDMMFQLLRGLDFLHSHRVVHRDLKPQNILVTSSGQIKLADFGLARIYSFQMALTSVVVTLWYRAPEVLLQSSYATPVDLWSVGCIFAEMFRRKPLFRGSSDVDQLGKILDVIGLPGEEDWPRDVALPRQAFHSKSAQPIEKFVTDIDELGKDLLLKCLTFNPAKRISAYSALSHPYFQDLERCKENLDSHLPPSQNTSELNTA
T6 sequence (P30281 whole entry partner): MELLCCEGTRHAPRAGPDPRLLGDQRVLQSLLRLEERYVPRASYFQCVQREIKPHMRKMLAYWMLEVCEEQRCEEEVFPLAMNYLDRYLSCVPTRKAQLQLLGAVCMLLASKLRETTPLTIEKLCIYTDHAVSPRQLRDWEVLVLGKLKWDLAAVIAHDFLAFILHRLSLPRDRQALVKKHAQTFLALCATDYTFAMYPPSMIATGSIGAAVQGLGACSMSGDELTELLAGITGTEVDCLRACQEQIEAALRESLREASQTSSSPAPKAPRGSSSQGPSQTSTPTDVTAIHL
T5 sequence (P50750 whole entry): as the sequence (P50750 whole entry) above

Structure (SMILES) | Kd (CDK9/Cyclin K) [µM] | Kd (CDK9/Cyclin T1) [µM] | IC50 (CDK1/CyclinB1) [µM] | IC50 (CDK7/CyclinH/MAT1 [1]) [µM] | IC50 (CDK9) [µM] | IC50 (CDK6/CyclinD3) [µM] | IC50 (CDK4/CyclinD1) [µM] | IC50 (CDK2/CyclinA [2]) [µM] | Kd (CDK7/CyclinH/MAT1 [3]) [µM] | IC50 [4] [µM] | Kd (CDK2/CyclinA [5]) [µM] | IC50 (Hela cells) [µM] | IC50 (MDAMB468 cells) [µM]
CN(C)CCC1CCCCN1c1ncnc(Nc2cccc(CS(N)(=O)=O)c2)n1 (racemic) [Compound B8, rac-3-[(4-(2-(2-(Dimethylamino)ethyl)piperidin-1-yl)-1,3,5-triazin-2-yl)amino]benzenemethanesulfonamide] | 1 to 10 | 1 to 10 | > 10 | > 10 | 1 to 10 | > 10 | > 10 | > 10 |  |  |  |  | 
NS(=O)(=O)Cc1cccc(Nc2ncnc(N3CCC[C@@H]3COCc3ccccc3)n2)c1 [Compound B30, (R)-3-[(4-(2-(Benzyloxymethyl)pyrrolidin-1-yl)-1,3,5-triazin-2-yl)amino]benzenemethanesulfonamide] | 0.1 to 1 | 0.1 to 1 |  |  |  |  |  |  | > 10 | > 10 | > 10 |  | 
NS(=O)(=O)Cc1cccc(Nc2ncnc(N3CCC[C@@H]3c3ccccc3)n2)c1 [Compound B34, (R)-3-[(4-(2-Phenylpyrrolidin-1-yl)-1,3,5-triazin-2-yl)amino]-benzenemethanesulfonamide] | < 0.1 | < 0.1 |  |  |  |  |  |  | > 10 |  | 1 to 10 | > 10 | 1 to 10
NS(=O)(=O)Cc1cccc(Nc2ncnc(N3Cc4ccncc4C3)n2)c1 [Compound B49, 3-[(4-(1H-Pyrrolo[3,4-c]pyridin-2(3H)-yl)-1,3,5-triazin-2-yl)amino]-benzenemethanesulfonamide] | < 0.1 | < 0.1 |  |  |  |  |  |  | > 10 |  | 0.1 to 1 | > 10 | > 10
